Data on six compounds can be found in patent US20020035138A1, “Activating Cl- secretion” (Southern Research Institute, priority 1997, published 2002).

“Also recorded” adds a separate entry of the source. Read-outs that look alike come from different tables or passages of the source.

For one data set, the system named is CF tissues. The settings on record: including transepithelial transport in vivo; cited from earlier work.
Data set [1] relates to CFPAC cells. The data set can be described thus: Iodide efflux protocol in CFPAC cells. It is filed as cell-based, human. The settings on record: for iodide (anion) efflux: CF pancreatic ductular cells (CFPAC), FIG. 1. An excerpt: (§1) The iodide efflux protocol is a conventional test for the existence of anion permeability pathways, including both CFTR (cAMP-activated) and non-CFTR permeability pathways (e.g., Ca^2+-activated Cl^− transport). […] Ionomycin, a Ca^2+ ionophore, is known to activate non-CFTR-type anion efflux pathways in CFPAC cells by increasing intracellular Ca^2+.
(§2) Epithelial cells in the pancreatic ducts, lung, and colon secrete fluid and electrolytes into the pancreatic ductular lumen, airways and intestinal lumen, respectively. The inability to secrete anions in response to a cAMP-dependent agonist such as forskolin is a hallmark of the CF phenotype. […] Methods: Iodide efflux. Iodide efflux was performed as previously described (Venglarik et al., Am. J. Physiol. 259:C358-C364, 1990, and Drumm et al., Cell 62:1227-1233, 1990) Cells were grown on […] culture dishes, and effluxes were performed when the cells were 80-100% confluent using a phosphate buffered Ringer's solution. Cells were loaded with ^125I (2-5 μCi/ml) for 30 minutes and then washed with PBS to remove extracellular ^125I. Efflux was detected by measuring the radioactivity in the extracellular solution which was changed every 15 seconds. At specific points, compounds were added to the cells. Increases in the rate of efflux after addition of a compound indicates the activation of an anion permeability pathway.

The next data set concerns CFPAC-1 cell monolayers. Put plainly: Short circuit current (ISC) in CFPAC-1 cell monolayers, Ussing chamber. It is filed as cell-based, human. As for the experimental part: FIG 4. Cl^- secretion in CFPAC-1 cells. CFPAC-1 cell monolayers were grown to confluency on permeable supports (Millipore) for 10 days. Filters were mounted in an Ussing chamber, and short circuit current measurement was carried out as previously described ([…] and Dawson, Am. J. Physiol. 251:[…]-[…], 1986). […] The compounds were screened using different concentrations of drugs and adding them to alternate surfaces of the filters (mucosal; serosal; mucosal and serosal). The effects of forskolin (10 μM), UTP (100 μM) CPX (100 μm) and duramycin (5 μm) were also studied. […] Explants of CF nasal polyps (primary airway epithelial cells) and control, non-CF colonic epithelial cells (T84) containing wild-type CFTR were also studied. […] In other words, these experiments raise the possibility that Cl^- secretion effects of drugs such as adenosine, milrinone, IBMX, or forskolin might be increased by compounds employed in the present invention by a conjoint therapy treatment. […] The ISC occurs after mucosal, but not serosal addition of the compound.

For another data set, the target named is T1, ΔF508 CFTR (Homo sapiens, UniProt P13569, DEL508-508).
T1 construct: host or cells: CFPAC and IB3-1 (endogenous mutant CFTR); NIH 3T3 (after expression of the ΔF508 protein)
The settings on record: cited from earlier work.

The next data set has as its system cellular cAMP. Put plainly: cAMP Immunoassay kit, cellular cAMP levels. It is filed as cell-based, human. The settings on record: same conditions that stimulate anion transport, FIG. 3. On the procedure: (§3) Proliferation was measured as in Hughes et al., Tumor specific killing with high bystander toxicity using the human tyrosinase promoter to express the E. coli PNP gene, Cancer Research 55: 3339-3345, 1995 and Parker et al., In vivo gene therapy of cancer with E. coli purine nucleoside phosphorylase, Human Gene Therapy, 1997 (in press) using a commercially available kit (Cell titer 96 kit, Promega) and carried out according to manufacturer's protocol. 20 μm 2931 activates Cl^− secretion in CF cells within 5 minutes. […] (FIG. 3A) cAMP levels were tested using the cAMP Immunoassay kit (Cayman) according to manufacturer's protocol.
A general note: Changes in cAMP serve as a functional read-out for many G protein-coupled receptors.

In the next data set the test system is mouse intestine. The data set can be described thus: ISC across mouse intestine (colon sections) in Ussing chambers. On the procedure: Small sections of mouse colon from both wild-type and CF knockout mice were mounted in Ussing chambers, and ISC measurements were recorded as described above. Both mucosal and serosal surfaces were bathed in regular Ringer's solution, and TTX (1.54×10^−3 μM) was added to the serosal side of the tissue. After a steady-state had been obtained, amiloride (10^−4 M) was added to the mucosal surface. Both sides were then bathed with regular Ringer's. A Cl gradient was established by bathing the mucosal surface with a 6 mM Cl^− solution. 5-diazoimidazol-4-carboxylic acid n-octyl ester (100 μM) was added first to the mucosal and then the serosal surface of the mounted tissue (FIG. 9).

Data set [2] concerns CFPAC cells. The data set can be described thus: Cell proliferation assay (Cell titer 96 kit). It is filed as cell-based, human. On the procedure: as §3
Data set [3] deals with primary airway cells taken from a CF patient. Put plainly: Iodide efflux protocol in primary airway cells taken from a CF patient. It is filed as cell-based, human. The note with it: FIG. 2. As for the experimental part:
as §2

For the next data set, the system named is T84 cells. Put plainly: Iodide efflux protocol in T84 colonic epithelial cells. It counts as cell-based, human. The settings on record: T84 cells expressing high levels of CFTR.
Excerpt: as §1, §2

Data set [4] concerns T84 colonic epithelial cells. Put plainly: Short circuit current (ISC) in T84 colonic epithelial cell monolayers. It is filed as cell-based, human. The settings on record: with 10 μM forskolin. As for the experimental part: FIG 4. Cl^- secretion in CFPAC-1 cells. CFPAC-1 cell monolayers were grown to confluency on permeable supports (Millipore) for 10 days. Filters were mounted in an Ussing chamber, and short circuit current measurement was carried out as previously described ([…] and Dawson, Am. J. Physiol. 251:[…]-[…], 1986). Filters were bathed in Ringer's solution (in mM: 145 Na^+, 5 K^+, 124.8 Cl^-, 1.2 Ca^2+, 1.2 Mg^2+, 25 HCO3-, 4.2 PO4, 10 glucose; pH=7.4) on the serosal surface and in a 6 mM Cl^- Ringer's solution (118.8 mM of Cl^- was replaced by the impermeant anion gluconate) on the mucosal surface. The compounds were screened using different concentrations of drugs and adding them to alternate surfaces of the filters (mucosal; serosal; mucosal and serosal). The effects of forskolin (10 μM), UTP (100 μM) CPX (100 μm) and duramycin (5 μm) were also studied. […] Explants of CF nasal polyps (primary airway epithelial cells) and control, non-CF colonic epithelial cells (T84) containing wild-type CFTR were also studied. […] In other words, these experiments raise the possibility that Cl^- secretion effects of drugs such as adenosine, milrinone, IBMX, or forskolin might be increased by compounds employed in the present invention by a conjoint therapy treatment. […] The ISC occurs after mucosal, but not serosal addition of the compound.

Where [5] appears, read: 100 μM, serosal-mucosal Cl- gradient.

T1 sequence (P13569 with tags, fused parts or gaps DEL508-508): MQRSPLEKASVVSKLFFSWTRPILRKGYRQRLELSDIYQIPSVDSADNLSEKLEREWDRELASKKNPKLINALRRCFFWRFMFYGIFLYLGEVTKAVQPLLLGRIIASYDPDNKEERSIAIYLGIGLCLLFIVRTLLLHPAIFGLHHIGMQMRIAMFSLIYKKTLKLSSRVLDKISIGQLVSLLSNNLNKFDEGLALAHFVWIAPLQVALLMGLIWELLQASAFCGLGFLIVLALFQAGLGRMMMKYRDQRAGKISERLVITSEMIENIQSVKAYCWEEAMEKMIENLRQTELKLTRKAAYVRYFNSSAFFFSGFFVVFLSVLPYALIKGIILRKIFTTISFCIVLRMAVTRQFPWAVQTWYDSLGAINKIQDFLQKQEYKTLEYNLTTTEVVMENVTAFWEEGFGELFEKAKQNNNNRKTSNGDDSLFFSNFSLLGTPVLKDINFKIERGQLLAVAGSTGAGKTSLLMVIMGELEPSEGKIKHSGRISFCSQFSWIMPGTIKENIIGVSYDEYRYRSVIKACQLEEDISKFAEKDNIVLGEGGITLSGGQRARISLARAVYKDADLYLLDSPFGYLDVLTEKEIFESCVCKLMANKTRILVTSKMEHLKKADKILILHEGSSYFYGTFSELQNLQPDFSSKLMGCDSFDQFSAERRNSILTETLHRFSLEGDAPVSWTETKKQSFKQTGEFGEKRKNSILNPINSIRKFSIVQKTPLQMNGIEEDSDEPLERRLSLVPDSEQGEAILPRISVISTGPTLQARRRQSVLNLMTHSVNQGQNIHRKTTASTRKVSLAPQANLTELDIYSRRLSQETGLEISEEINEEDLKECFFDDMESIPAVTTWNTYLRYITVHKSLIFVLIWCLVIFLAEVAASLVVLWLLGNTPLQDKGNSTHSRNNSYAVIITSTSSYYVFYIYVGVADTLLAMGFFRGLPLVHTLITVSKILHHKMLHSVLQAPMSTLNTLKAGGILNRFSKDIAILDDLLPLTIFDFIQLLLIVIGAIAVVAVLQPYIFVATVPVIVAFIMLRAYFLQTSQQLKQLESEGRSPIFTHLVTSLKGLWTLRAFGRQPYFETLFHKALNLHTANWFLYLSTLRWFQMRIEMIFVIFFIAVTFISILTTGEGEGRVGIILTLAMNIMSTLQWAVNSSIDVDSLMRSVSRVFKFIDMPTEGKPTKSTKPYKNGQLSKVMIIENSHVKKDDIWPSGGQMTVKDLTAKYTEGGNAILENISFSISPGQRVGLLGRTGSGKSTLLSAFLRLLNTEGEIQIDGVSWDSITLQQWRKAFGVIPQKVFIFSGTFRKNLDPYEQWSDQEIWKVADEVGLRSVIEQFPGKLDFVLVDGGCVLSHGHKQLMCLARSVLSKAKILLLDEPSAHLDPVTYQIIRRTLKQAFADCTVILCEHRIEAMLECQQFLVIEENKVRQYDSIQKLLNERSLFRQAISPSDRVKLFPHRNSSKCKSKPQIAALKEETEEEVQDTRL

Take `Nc1ncnc2c1ncn2[C@@H]1O[C@H](COP(=O)(O)OP(=O)(O)OP(=O)(O)O)[C@@H](O)[C@H]1O` [ATP, adenosine triphosphate]: the Cl- secretion entry in the data set on CF tissues is given as “shown to activate”.
In the case of `C[C@H](CCC(=O)O)C[C@H](C)C[C@H](C)C(=O)/C=C(\O)[C@H](C)C[C@H](C)C/C=C/[C@@H](C)[C@@H](O)[C@@H](C)[C@@H](O)C[C@@H]1CC[C@@](C)([C@H]2CC[C@@](C)([C@@H](C)O)O2)O1` [Ionomycin, reference compound], in the data set with CFPAC cells [1], the “iodide (anion) efflux” value is “anticipated stimulation of iodide efflux”.
`O=c1ccn([C@@H]2O[C@H](COP(=O)(O)OP(=O)(O)OP(=O)(O)O)[C@@H](O)[C@H]2O)c(=O)[nH]1` [UTP, uridine triphosphate, reference compound]: the “ISC / transepithelial Cl- secretion” value in the data set with CFPAC-1 cell monolayers (setting [5]) was “small, transient activation; also recorded: smaller, transient effect”. For the same compound, the Cl- secretion result in the data set on CF tissues is reported as “shown to activate”.
As to `CCCn1c(=O)c2[nH]c(C3CCCC3)nc2n(CCC)c1=O` [CPX, reference compound], the “ISC / transepithelial Cl- secretion” value with CFPAC-1 cell monolayers (setting [5]) was “did not suggest strong Cl^− secretion; also recorded: do not mediate Cl^− secretion”. In addition, the “direction of predominant ISC” value with CFPAC-1 cell monolayers (setting [5]) is on record as “opposite to that expected”. The Cl- efflux result on ΔF508 CFTR (NIH 3T3 cells after expression of the ΔF508 protein), at ΔF508 CFTR (airway cells derived from a CF patient (IB3-1-cell line)) and at ΔF508 CFTR (human CF pancreatic cells (CFPAC-cell line)) was “could be activated” in each case.
Take duramycin [reference compound]: in the data set on CFPAC-1 cell monolayers (5 μm), the “ISC / transepithelial Cl- secretion” value is given as “stronger, although transient, activation”.
On to `CCCCCCCCOC(=O)C1=NC=NC1=[N+]=[N-]` [5-diazoimidazol-4-carboxylic acid n-octyl ester], for which, in the data set on cellular cAMP, the “cellular cAMP” value is given as “does not increase cellular cAMP”. Moreover, in the data set on CFPAC-1 cell monolayers (BAPTA AM 100 μM, FIG. 7), the “induced ISC in presence of BAPTA AM” value is “had no effect”. Also, the “potency and duration of effects relative to UTP and CPX” value in the data set with CFPAC-1 cell monolayers (CFPAC cells) was “more potent and prolonged effects”. Further, in the data set on CFPAC-1 cell monolayers (Cl- gradient reversed (mucosal-to-serosal)), the “direction of ISC” value is “could be reversed”. The ISC response result is “much less pronounced” in the data set with CFPAC-1 cell monolayers (Cl- omitted from mucosal and serosal bathing solutions); “strong ISC response” in the data set with CFPAC-1 cell monolayers (added to apical (mucosal) surface, serosal-to-mucosal Cl- gradient); “not basolateral” with CFPAC-1 cell monolayers (added to basolateral (serosal) surface). For the same compound, the “ISC effect in presence of acetazolimide” value in the data set on CFPAC-1 cell monolayers (acetazolimide 100 μM) is on record as “did not inhibit the effect”. In the data set on CFPAC-1 cell monolayers (amiloride 10 μM on apical surface), the “ISC response in presence of amiloride” value was “did not alter this response”. In addition, the duration of activity entry in the data set with CFPAC-1 cell monolayers (compared with UTP, CPX or duramycin, same conditions, FIG. 8) is “of longer duration than other drugs”. Besides, in the data set on CFPAC-1 cell monolayers (symmetrical Ringer's lactate), the “ISC activation without imposed gradient” value was “still present”. Moreover, the “induced ISC in presence of thapsagargin” value in the data set on CFPAC-1 cell monolayers (thapsagargin 0.1 μM, FIG. 7) is given as “had no effect”. Also, the ISC activation result is given as “ISC activation is also observed” in the data set on mouse intestine (CFTR knock out (−/−) mice, data not shown); “activates ISC” with mouse intestine (normal mice, 100 μM, mucosal surface); “activates ISC” in the data set with mouse intestine (ΔF508 CFTR transgenic mice, 100 μM, mucosal surface). For the same compound, the “time to activation of Cl- secretion” value in the data set on CFPAC cells [1] (20 μm, CF cells) is at most 5 min. For the same compound, the “iodide (anion) efflux” value was “confers a rapid efflux of iodide; also recorded: strongly activated” in the data set on CFPAC cells [1], “strongly activated” in data set [3] and “strongly activated” in the data set with T84 cells. Moreover, in the data set with CFPAC cells [1] (extracellular Ca2+ removed), the “anion efflux after removal of extracellular Ca2+” value is given as “does not substantially inhibit anion efflux”. Also, in the data set with CFPAC cells [2] (at concentrations that activate anion efflux, FIG. 3A), the proliferation of cells entry is reported as “allows proliferation of cells”. The “effects on cellular proliferation” value in the data set with CFPAC cells [2] (cells grown for 7 days at 20 μm) is listed as “minimal effects on cellular proliferation”. For the same compound, the “ISC on top of maximal forskolin activation” value in data set [4] is “augmented the maximal ISC activation”.
